Results from article PMC9537177, “A VEGFR targeting peptide-drug conjugate (PDC) suppresses tumor angiogenesis in a TACE model for hepatocellular carcinoma therapy” (Cell Death Discovery, 2022).
Like-named read-outs stand apart in the source and are kept apart here. Square brackets hold non-standard residues; d marks the D form. Peptide text beside a SMILES is read from it. Aib = CC(C)(N)C(=O)O

Columns and labels:
VX2 liver tumor = experiment: VX2 rabbit liver tumor model with TAE/TACE: tumor growth, necrosis, apoptosis, proliferation, angiogenesis; format: in vivo, New Zealand white rabbits; details: for mean tumor volume at 7 days after TAE procedure: 0.5 mL lipiodol emulsion into tumor-feeding artery, QR-KLU 4 mg/kg; for mean tumor volume at 7 days after TAE procedure / tumor growth rate (V7/V0 × 100%) / mean tumor necrosis rate: DOX 2 mg/kg, KLU 4 mg/kg; for mean tumor volume at 7 days after TAE procedure / mean tumor volume one day before TAE procedure: MR images, 24 rabbits evenly in four groups; for mean tumor volume at 7 days after TAE procedure / mean tumor necrosis rate / mean tumor volume one day before TAE procedure: mean ± SD; for tumor growth rate (V7/V0 × 100%): 7 days after TAE, NS group 276.4%; for tumor growth rate (V7/V0 × 100%) / mean tumor necrosis rate: QR-KLU 4 mg/kg in lipiodol; for mean proportion of apoptotic cells in tumor (TUNEL) / mean proportion of proliferating cells in tumor (Ki67) / mean tumor necrosis rate: 7 days after treatment; for mean proportion of apoptotic cells in tumor (TUNEL) / mean proportion of proliferating cells in tumor (Ki67): versus NS group; for mean tumor necrosis rate: H&E staining; for mean tumor volume one day before TAE procedure: baseline, V = a*b^2/2, VX2 rabbits
Experimental: New Zealand white rabbits (2.5-3 kg) were purchased from the Laboratory Animal Center of Tongji Medical College of Huazhong University of Science and Technology (Wuhan, China). All the animal experimental procedures were performed in accordance with the National Institutes of Health Guidelines for the Care and Use of Laboratory Animals and the protocol was approved by the Ethics Committee of Tongji Medical College, Huazhong University of Science and Technology. Blinding was not possible in most animal experiments. The rabbit VX2 liver tumor model was established according to the method reported by Qian K et al.. […] The acquisition parameters of the sequence are as follows: […], TR 2750 ms, TE 65 ms, the field of view 120 mm × 120 mm, Slice thickness 3 mm in the transverse plane, matrix 152 × 152. The multi-vane technique was used to reduce artifacts and improve image quality, acquisition time 3 min […]; […] Seven days after TACE procedure, tumor size was evaluated again by MR scan and the tumor volume was calculated by formula: V = a * b^2/2 (a, long diameter; b, short diameter). And tumor growth rate was calculated by formula: […] Finally, the VX2 rabbits were sacrificed and the tumor tissues were harvested for biochemical analysis and histopathological examination. […] The IHC staining procedures were performed as previously described. Briefly, the sections were blocked in 3% H2O2 for 25 min and then incubated with goat serum for 15 min. Subsequently, the sections were first washed and incubated with anti-VEGF (1:200, Abcam, USA), and anti-CD31 (1:20; Abcam, USA) overnight at 4 °C, and then incubated with second antibody (Abcam, USA) at 37 °C for 50 min. Next, the sections were stained with 3, 3'-diaminobenzidine (DAB, Service bio, Wuhan […] Biotechnology Co., Ltd., China) for 6 min and rinsed and stained in hematoxylin for 30 s. The sections were then dehydrated in gradient alcohol and sealed in neutral resins. VEGF expression was assessed by semiquantitative IHC based on staining intensity and density, the staining intensity was scored as 0 (negative), 1 (weak), 2 (moderate), and 3 (strong), while the staining density was scored on the basis of the percentage of positively stained cells: 0 (0%), 1 (1-25%), 2 (26-50%), 3 (51-75%), and 4 (76-100%). The total VEGF IHC score was calculated by multiplying the intensity score by the density score. Microvessel density (MVD) was calculated according to the method developed by Weidner et al.

Huh7 cells = experiment: Cell viability (CCK8) assay, Huh7; format: cell-based, human; details: for IC50: CCK8, 48 h treatment in medium with 5% FBS, absorbance 450 nm, mean ± SD, read-out: IC50, cytotoxicity in Huh7 cells
Experimental: (§1) All reagents were purchased from Gibco. All these cells were routinely tested for mycoplasma contamination and tested negative and maintained in a humidified incubator containing 5% CO2 at 37 °C. Cell viability for different cell lines were measured by cell counting kit-8 (CCK8) assays. The cells were incubated on a 96-well plate for 24 h in growth medium prior to drug treatment. […] Then CCK8 (10 μL) was added and the cells were incubated for 1 h at 37 °C with 5% CO2. Absorbance was measured with a microplate reader (Bio-Rad) at a wavelength of 450 nm.

HUVEC cells [1] = experiment: Wound-healing assay of HUVEC cells; format: cell-based, human; details: 24 h
Experimental: Wound-healing assay was performed according to the protocols reported by Liang et al.. Briefly, HUVEC cells were plated into 12-well plate and grown to create a confluent monolayer. The monolayer was grazed in a straight line to create a “scratch” with a pipette tip. Markings were created close to the scratch to be used as reference points. Then cells were treated with different peptides for 24 h at 37 °C. Images were collected with a Leica DFC480 camera on a phase-contrast microscope equipped with a 10 × objective at room temperature. The free area of the wound was measured by image software. Supplementary Figure S1. Wound healing assay to detect the cell migration influenced by different peptides.

HUVEC cells [2] = experiment: Cell viability (CCK8) assay, HUVEC; format: cell-based, human
Experimental: as §1

[3] = Therapeutic safety in VX2 tumor-bearing rabbits (organ H&E, serum biochemistry); details: before and 1, 3, 7 days after treatment; 4 mg/kg in lipiodol via TAE
Experimental: Twenty-four VX2 tumor-burdened rabbits were evenly divided into four groups. After fasting for 12 h, the rabbits were anesthetized by intravenous injection of pentobarbital sodium solution (2 wt.%, 30 mg/kg). The rabbit’s right femoral artery was dissected and a 4-F Cobra catheter (Cook, Inc., Bloomington, Indiana) was inserted into the celiac artery, hepatic arteriography was then performed under the guidance of digital subtraction angiography (DSA), and a 2.7-F coaxial microcatheter (Terumo, Tokyo, Japan) was super-selectively inserted into the tumor donor branch subsequently. The emulsion of drugs and lipiodol were slowly injected into the tumor-feeding artery through the above microcatheter at a speed of 0.5 mL/min. […] After obtaining all DSA images, the sheaths and catheters were removed.
Seven days after treatment, the liver tumors, hearts, lungs, kidneys and spleens were harvested and fixed in 4% phosphate-buffered paraformaldehyde, the specimens were embedded in paraffin blocks and cut into 5‐μm‐thick sections. Following the manufacturer’s guidelines, the sections were stained with haematoxylin and eosin (H&E) for the evaluation of organ toxicity and tumor necrosis, Ki-67 staining and transfer-mediated dUTP nick end labeling (TUNEL) technique were used to detect tumor proliferation and apoptosis, respectively.
Blood samples were collected before treatment and at 1, 3, 7 days after treatment. The blood samples were stood at room temperature for 30 min, and the serum was obtained by centrifugation (room temperature, 8000 rpm, 10 min) for assessment of alanine aminotransferase (ALT), aspartate aminotransferase (AST), total bilirubin (TBIL) and creatinine (CREA). The assays were performed using the commercially ready-made kits following the manufacturers’ instructions.

HUVEC cells [4] = experiment: Annexin V-FITC/PI cell apoptosis assay, HUVEC; format: cell-based, human; details: 80 μM, 24 h, Annexin V-PI FACS
Experimental: The improved proapoptotic activity of QR-KLU was further confirmed by Annexin V-PI staining through FACS. Viable cells, early apoptotic cells, necrotic cells, late apoptotic cells were represented by Q4, Q3, Q2 and Q1 respectively. […] Besides, QR-KLU induced cell apoptosis in a dose-dependent manner. […] The percentage of apoptotic cells in KLU peptide at 20 μM were about 25% in both Huh7 cells and HUVEC cells.
(§2) The apoptosis assay was performed according to the manufacturer’s instructions using an Annexin V: Fluorescein Isothiocyanate (FITC) Apoptosis Detection Kit I (BD Pharmingen™). Briefly, Huh 7 or HUVEC cells were seeded in a 12-well plate and allowed to grow for 24 h in medium with 10% FBS. Then, the cells were treated with the different peptides in medium with 5% FBS for 24 h’ incubation. The cells were harvested with 0.25% trypsin/EDTA, washed twice with PBS and suspended in 1 × binding buffer. The suspended cells were treated with FITC-labeled Annexin V and propidium iodide (PI) as the protocol indicated and then analyzed by flow cytometry to determine the apoptotic cells. The cells with positive fluorescence intensity signals for both FITC and PI were used for the apoptotic cell count.
Supplementary Figure S2. Cell apoptosis of HUVEC induced by different peptides. HUVEC cells were treated with PBS, 80μM QR, 20μM KLU, 5μM QR-KLU, 10μM QR-KLU for 24 hours before detection by FACS.

Huh 7 cells = details: 80 μM, 24 h, Annexin V-PI FACS
Experimental: Viable cells, early apoptotic cells, necrotic cells, late apoptotic cells were represented by Q4, Q3, Q2 and Q1 respectively.
as §2

| Compound | mean tumor volume at 7 days after TAE procedure (VX2 liver tumor) [mm^3] | tumor growth rate (V7/V0 × 100%) (VX2 liver tumor) | mean proportion of apoptotic cells in tumor (TUNEL) (VX2 liver tumor) | mean proportion of proliferating cells in tumor (Ki67) (VX2 liver tumor) | mean tumor necrosis rate (VX2 liver tumor) | mean tumor volume one day before TAE procedure (VX2 liver tumor) [mm^3] | IC50 (Huh7 cells; Homo sapiens, Huh-7) [µM] | cell migration of HUVEC (wound epithelial gap) (HUVEC cells [1]; 20 μM) | IC50 (HUVEC cells [2]; CCK8, 48 h treatment in medium with 5% FBS, absorbance 450 nm, mean ± SD, read-out: IC50, cytotoxicity in HUVEC cells) [µM] | liver and renal toxicity (ALT, AST, TBIL, CREA in serum) [3] | IC50 (Huh7 cells) [µM] | cell proliferation or migration of HUVEC (wound healing) (HUVEC cells [1]; 80 μM) | proapoptotic effect in HUVEC cells (HUVEC cells [4]) | cellular toxicity in HUVEC cells (HUVEC cells [2]; CCK8, 48 h, up to 80 μM) | proapoptotic effect in Huh 7 cells (Huh 7 cells) | cellular toxicity in Huh7 cells (Huh7 cells; CCK8, 48 h, up to 80 μM) |
| --- | --- | --- | --- | --- | --- | --- | --- | --- | --- | --- | --- | --- | --- | --- | --- | --- |
| COc1cccc2c1C(=O)c1c(O)c3c(c(O)c1C2=O)C[C@@](O)(C(=O)CO)C[C@@H]3O[C@H]1C[C@H](N)[C@H](O)[C@H](C)O1 [DOX, doxorubicin] | 1382.9 ± 563.7 | significantly lower than that of the NS group | significantly higher than that in NS group | significantly lower than that in NS group | 81.4% ± 2.3 | 889.0 ± 317.7 | 0.243 ± 0.076 | – | – | – | – | – | – | – | – | – |
| CC(=O)N[C@@H](CCCCN)C(=O)N[C@@H](CC(C)C)C(=O)NC(C)(C)C(=O)N[C@@H](CCCCN)C(=O)N[C@@H](CC(C)C)C(=O)NC(C)(C)C(=O)N[C@@H](CCCCN)C(=O)N[C@@H](CCCCN)C(=O)N[C@@H](CC(C)C)C(=O)NC(C)(C)C(=O)N[C@@H](CCCCN)C(=O)N[C@@H](CC(C)C)C(=O)NC(C)(C)C(=O)N[C@@H](CCCCN)C(N)=O [KLU] (Ac-KL[Aib]KL[Aib]KKL[Aib]KL[Aib]K-NH2) | 1321.4 ± 210.4 | significantly lower than that of the NS group | significantly higher than that in NS group | significantly lower than that in NS group | 79.5% ± 8.0 | 991.8 ± 114.2 | – | the wound epithelial gap was unchanged or even bigger | 33.8 ± 0.98 | no significant liver or renal toxicity | 36.3 ± 2.7 | – | – | – | – | – |
| Ac-QKRKRKKSRYKS-NH2 [QR] | – | – | – | – | – | – | – | – | – | – | – | not affected | didn’t show obvious proapoptotic effect | negligible toxicity | didn’t show obvious proapoptotic effect | negligible toxicity |
